Test results reported in patent publication US9012496B2, “Pharmaceutical compositions of (R)-1-(2,2-difluorobenzo[D][1,3]dioxol-5-yl)-N-(1-(2,3-dihydroxypropyl)-6-fluoro-2-(1-hydroxy-2-methylpropan-2-yl)-1H-indol-5-yl)cyclopropanecarboxamide and administration thereof” (Vertex Pharmaceuticals Incorported, priority 2012, dated 2015).

Molecular target: T1, ΔF508-CFTR (Homo sapiens, UniProt P13569, DEL508-508)
T1 construct: expressed in transfected cells; host or cells: NIH3T3 mouse fibroblasts (optical membrane potential assay, whole-cell and single-channel recordings); Fisher rat epithelial (FRT) cells (Ussing chamber)
Assay: Assays for detecting and measuring ΔF508-CFTR correction properties (membrane potential optical assay; electrophysiological assays)
Format: cell-based
Excerpt: Assays for Detecting and Measuring ΔF508-CFTR Correction Properties of Compounds
Membrane potential optical methods for assaying ΔF508-CFTR modulation properties of compounds.
The optical membrane potential assay utilized voltage-sensitive FRET sensors described by Gonzalez and Tsien (See Gonzalez, J. E. and R. Y. Tsien (1995) “Voltage sensing by fluorescence resonance energy transfer in single cells” Biophys J 69(4): 1272-80, and Gonzalez, J. E. and R. Y. Tsien (1997) “Improved indicators of cell membrane potential that use fluorescence resonance energy transfer” Chem Biol 4(4): 269-77) in combination with instrumentation for measuring fluorescence changes such as the Voltage/Ion Probe Reader (VIPR) (See, Gonzalez, J. E., K. Oades, et al. (1999) “Cell-based assays and instrumentation for screening ion-channel targets” Drug Discov Today 4(9): 431-439).
These voltage sensitive assays are based on the change in fluorescence resonant energy transfer (FRET) between the membrane-soluble, voltage-sensitive dye, DiSBAC2(3), and a fluorescent phospholipid, CC2-DMPE, which is attached to the outer leaflet of the plasma membrane and acts as a FRET donor. […] The changes in fluorescence emission were monitored using VIPR™ II, which is an integrated liquid handler and fluorescent detector designed to conduct cell-based screens in 96- or 384-well microtiter plates. […]

T1 sequence (P13569 with tags, fused parts or gaps DEL508-508): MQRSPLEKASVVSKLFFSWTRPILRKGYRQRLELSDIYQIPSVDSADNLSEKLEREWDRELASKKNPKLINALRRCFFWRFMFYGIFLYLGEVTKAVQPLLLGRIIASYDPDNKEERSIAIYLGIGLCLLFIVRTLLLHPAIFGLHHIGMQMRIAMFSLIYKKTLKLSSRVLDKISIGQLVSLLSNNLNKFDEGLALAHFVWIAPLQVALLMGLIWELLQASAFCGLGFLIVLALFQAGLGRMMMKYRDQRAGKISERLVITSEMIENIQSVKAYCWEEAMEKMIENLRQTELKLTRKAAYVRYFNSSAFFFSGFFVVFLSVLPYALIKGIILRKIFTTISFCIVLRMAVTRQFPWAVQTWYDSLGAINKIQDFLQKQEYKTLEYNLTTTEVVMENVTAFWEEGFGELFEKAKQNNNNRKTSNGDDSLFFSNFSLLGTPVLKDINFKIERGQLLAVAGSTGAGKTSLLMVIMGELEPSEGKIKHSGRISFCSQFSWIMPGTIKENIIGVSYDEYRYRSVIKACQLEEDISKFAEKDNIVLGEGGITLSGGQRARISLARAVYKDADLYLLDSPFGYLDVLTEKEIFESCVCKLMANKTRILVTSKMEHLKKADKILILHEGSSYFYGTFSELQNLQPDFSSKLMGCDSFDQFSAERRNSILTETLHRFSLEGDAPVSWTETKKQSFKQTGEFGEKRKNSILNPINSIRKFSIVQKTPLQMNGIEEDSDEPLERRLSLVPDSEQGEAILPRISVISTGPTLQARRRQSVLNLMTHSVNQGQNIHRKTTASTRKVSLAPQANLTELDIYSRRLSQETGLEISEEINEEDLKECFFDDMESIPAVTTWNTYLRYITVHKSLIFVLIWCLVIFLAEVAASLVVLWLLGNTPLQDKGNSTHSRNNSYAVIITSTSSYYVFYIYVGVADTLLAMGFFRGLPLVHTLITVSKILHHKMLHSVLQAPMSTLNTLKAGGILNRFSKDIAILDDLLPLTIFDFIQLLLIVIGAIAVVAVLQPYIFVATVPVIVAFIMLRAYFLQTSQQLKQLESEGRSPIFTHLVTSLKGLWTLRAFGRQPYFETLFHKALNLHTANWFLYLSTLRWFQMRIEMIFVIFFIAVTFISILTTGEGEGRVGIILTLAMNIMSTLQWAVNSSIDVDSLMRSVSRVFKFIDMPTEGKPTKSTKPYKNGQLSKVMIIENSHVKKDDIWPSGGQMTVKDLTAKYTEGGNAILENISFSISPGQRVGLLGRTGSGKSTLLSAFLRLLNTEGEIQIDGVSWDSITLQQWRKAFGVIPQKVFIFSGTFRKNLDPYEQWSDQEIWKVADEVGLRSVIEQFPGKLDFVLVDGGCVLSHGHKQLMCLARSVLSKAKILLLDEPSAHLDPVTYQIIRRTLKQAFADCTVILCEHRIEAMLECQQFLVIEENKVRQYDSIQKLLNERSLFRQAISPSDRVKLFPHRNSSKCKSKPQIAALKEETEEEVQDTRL

CC(C)(CO)c1cc2cc(NC(=O)C3(c4ccc5c(c4)OC(F)(F)O5)CC3)c(F)cc2n1C[C@@H](O)CO [Compound 1, (R)-1-(2,2-difluorobenzo[d][1,3]dioxol-5-yl)-N-(1-(2,3-dihydroxypropyl)-6-fluoro-2-(1-hydroxy-2-methylpropan-2-yl)-1H-indol-5-yl)cyclopropanecarboxamide]
EC50 (NIH3T3 mouse fibroblasts stably expressing ΔF508-CFTR, read-out: BinnedEC50): ≤ 2000 nM
BinnedMaxEfficacy (PercentActivity bins): +++ (100.0 < +++)
